Like-named read-outs stand apart in the source and are kept apart here.

The source of these data is paper PMC4533973, “Synthesis and Evaluation of Chloramphenicol Homodimers: Molecular Target, Antimicrobial Activity, and Toxicity against Human Cells” (PLoS ONE, 2015).

One assay has as its system E. faecium (GRE5152). In words: Antibacterial activity (growth inhibition, EC50). It counts as cell-based. The conditions noted are these: Enterococcus faecium. From the text: (§1) A.S. Mankin (University of Illinois). E. coli ΔtolC strain BL21 DE3 with impaired AcrAB-TolC, a proton-dependent MDR efflux pump causing multidrug resistance, was offered by Dr D.N. Wilson (University of Munich) and included in our study to test if this mechanism of resistance affects the efficacy of CAM dimers. […] I. Spiliopoulou (National Reference Laboratory for Staphylococci, School of Medicine, University of Patras, Greece). Finally, E. coli strain Rosetta(DE3)pLysS, containing a chloramphenicol resistant gene in the pLysS plasmid, was purchased from Novagen and was also included in our study. Briefly, S. aureus or E. coli cells (200 μl of a 0.700 OD560 preculture) containing wild-type or mutant ribosomes were added in 3.8 ml of LB (Luria-Bertani) medium and grown at 37°C in the presence or absence of CAM or CAM dimers until the optical density of the control culture (grown in the absence of drug) reached the value 0.700 at 560 nm. For E. faecium and P. aeruginosa cultures, TSB (Tryptic Soy Broth) medium was used, instead of LB medium, in order to achieve exponential doubling times between 25 and 35 minutes. From dose-response curves, the half-maximal effective concentration (EC50) for each compound and strain was estimated. EC50 represents the molar concentration of a compound that produces 50% of the maximal possible effect. The EC50 values were mathematically determined by non linear regression fitting of the observed culture optical-density values, expressed as the percentage of 0.700 (y), into Hill Equation, y=min+max−min/1+(x/EC50)^−n where min and max are the lowest and highest observed values of the culture optical density, respectively, x the concentration of the tested compound, and n the Hill coefficient that represents the largest absolute value of the curve slope. EC50 is equal to the x- value of the sigmoid’s midpoint. Fitting was performed using the Four Parameter Logistic Curve of the SigmaPlot Program Version 11.0 (Systat Software, Inc) for Exact Graphs and Data Analysis.

For another assay, the system named is S. aureus (WT). The experiment in a line: Antibacterial activity (growth inhibition, EC50). It counts as cell-based. The conditions noted are these: Staphylococcus aureus.
Text: as §1

Another assay concerns MRSA (GRE2272). In words: Antibacterial activity (growth inhibition, EC50). It is filed as cell-based. The conditions noted are these: Staphylococcus aureus.
Text: as §1

The test system of the next assay is MRSA (GRE2691). The experiment in a line: Antibacterial activity (growth inhibition, EC50). It counts as cell-based. The following applies: Staphylococcus aureus.
Text: as §1

The next assay has as its system E. coli (ΔtolC). In words: Antibacterial activity (growth inhibition, EC50). The conditions noted are these: Escherichia coli, BL21-DE3. It counts as cell-based, Escherichia coli.
Text: as §1

The test system of assay [1] is E. coli Rosetta(DE3)pLysS. In words: Antibacterial activity (growth inhibition, EC50). It counts as cell-based, Escherichia coli. The conditions noted are these: for EC50: Escherichia coli.
Text: as §1

Another assay concerns E. coli (A2503C). In words: Antibacterial activity (growth inhibition, EC50). It counts as cell-based, Escherichia coli. The conditions noted are these: for EC50: Escherichia coli.
Text: as §1

Another assay relates to E. coli (WT). In words: Antibacterial activity (growth inhibition, EC50). It counts as cell-based, Escherichia coli. The following applies: for EC50: Escherichia coli, LB medium, 37°C, OD560; for EC50(cell growth)/IC50(puro): wild-type E. coli, IC50(puro) calculated from Ki* at 2 mM puromycin.
Text: as §1

Another assay has as its system E. coli (A2058G). The experiment in a line: Antibacterial activity (growth inhibition, EC50). It is filed as cell-based, Escherichia coli. The following applies: for EC50: Escherichia coli.
Text: as §1

The test system of the next assay is P. aeruginosa (GRE5288). In words: Antibacterial activity (growth inhibition, EC50). It is filed as cell-based, Pseudomonas aeruginosa. The conditions noted are these: Pseudomonas aeruginosa.
Text: as §1

The target of the next assay is T1, CAM acetyltransferase (Escherichia coli, UniProt P62577).
T1 construct: purchased Sigma-Aldrich; host or cells: E. coli
The experiment in a line: CAM acetyltransferase assay (compounds as acetyl-acceptor substrates). It is filed as biochemical, E. coli. The procedure:
Fig 6 Kinetic analysis of the CAM acetyltransferase reaction using CAM or compounds 4 and 5 as substrates. […] The product of the enzymatic reaction, coenzyme A, reacted with 5,5’-dithio-bis(2-nitrobenzoic acid) to yield 5-thio-2-nitrobenzoate which absorbs at 412 nm, with a micromolar extinction coefficient equal to 0.0136. The Vmax and Km values were determined by fitting the substrate concentrations [S] and the obtained ΔA412nm/min (Vo) values into equation V 0 = V max[S]/(K m + [S]). The obtained Vmax values were divided by 0.0136 to convert their units in μM·min^-1 (http://www.sigmaaldrich.com/technical-documents/protocols/biology/enzymatic-assay-of-chloramphenicol-acetyltransferase.html). The ratio Vmax/Km for each curve is given in parenthesis. TEXT PRINTED IN THE PICTURE: no label printed: (0.178 min^-1) | no label printed: (0.139 min^-1) | no label printed: (0.008 min^-1) DOUBTS OF THE COPYIST ABOUT THIS PICTURE: The picture prints no substance label and no measure name for the three values. They stand beside the curves marked with triangles (0.178 min^-1), circles (0.139 min^-1) and squares (0.008 min^-1). […]

Where [2] appears, read: LB medium, 37°C, OD560, read-out: EC50.

T1 sequence (P62577 whole entry, looked up): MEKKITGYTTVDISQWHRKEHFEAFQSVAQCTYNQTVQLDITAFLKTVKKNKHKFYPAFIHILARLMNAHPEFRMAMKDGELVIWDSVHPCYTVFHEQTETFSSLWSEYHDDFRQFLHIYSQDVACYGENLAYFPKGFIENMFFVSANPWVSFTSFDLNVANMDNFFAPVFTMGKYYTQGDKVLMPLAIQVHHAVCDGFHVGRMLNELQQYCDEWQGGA

For the compound `O=C(N[C@H](CO)[C@H](O)c1ccc([N+](=O)[O-])cc1)c1ccc(C(=O)N[C@H](CO)[C@H](O)c2ccc([N+](=O)[O-])cc2)cc1` [Compound 5, N^1,N^4-Bis ((1R,2R)-1,3-dihydroxy-1-(4-nitrophenyl)propan-2-yl)-terephthalamide], the EC50 came to 40.9 ± 3.8 µM in the assay on E. faecium (GRE5152) (TSB medium, 37°C, OD560, read-out: EC50); 15.4 ± 1.9 µM in the assay with S. aureus (WT) (setting [2]); 16.9 ± 4.4 µM in the assay on MRSA (GRE2272) (setting [2]); 24 ± 3.1 µM with MRSA (GRE2691) (setting [2]); 23.7 ± 1.5 µM in the assay with E. coli (ΔtolC); 23.5 ± 1.3 µM in assay [1]. For the same compound, the EC50 with E. coli (A2503C) came to 16.4 ± 1.5 µM; in the assay on E. coli (WT), 25.3 ± 1.9 µM; in the assay on E. coli (A2058G), 18 ± 1.5 µM; with P. aeruginosa (GRE5288) (TSB medium, clinical isolate with MexAB-OprM and MexXY efflux, read-out: EC50), 15.2 ± 1.3 µM. Moreover, the “activity compared to CAM in inhibiting the growth of Rosetta(DE3)pLysS E. coli cells” value in assay [1] is reported as “five-fold higher activity”. Moreover, in the assay on E. coli (A2503C), the “fold more active than CAM in inhibiting the A2503C mutant” value is recorded as “approximately 2 fold”. Moreover, the “EC50(cell growth)/IC50(puro)” value in the assay on E. coli (WT) is 14.06 ± 1.75. Moreover, in the assay with E. coli (A2058G), the “activity relative to CAM in inhibiting the growth of the A2058G mutant” value is given as “equivalent to CAM”. For the same compound, on CAM acetyltransferase, the “behaviour as substrate of CAM acetyltransferase” value is “almost inactive”.
Take `O=C(CCCCC(=O)N[C@H](CO)[C@H](O)c1ccc([N+](=O)[O-])cc1)N[C@H](CO)[C@H](O)c1ccc([N+](=O)[O-])cc1` [Compound 4, N^1,N^6-Bis((1R,2R)-1,3-dihydroxy-1-(4-nitrophenyl)propan-2-yl)adipamide]: the EC50 in the assay with E. faecium (GRE5152) is 99.8 ± 46.9 µM; in the assay on S. aureus (WT), 28.3 ± 1.8 µM; with MRSA (GRE2272), over 200 µM; in the assay on MRSA (GRE2691), 76.9 ± 8.6 µM; in the assay on E. coli (ΔtolC) it was 98 ± 16.3 µM; in assay [1], over 200 µM. Besides, the EC50 in the assay with E. coli (A2503C) was over 100 µM; in the assay on E. coli (WT) it was 83.6 ± 6.2 µM; with E. coli (A2058G) it was 97 ± 3.3 µM; in the assay with P. aeruginosa (GRE5288), 72.6 ± 13.7 µM. For the same compound, the “EC50(cell growth)/IC50(puro)” value with E. coli (WT) is on record as 7.45 ± 0.81. Moreover, the “behaviour as substrate of CAM acetyltransferase” value on CAM acetyltransferase is “behaves like CAM as substrate of CAM acetyltransferase”.
